The subject of data set [1] is OC cell lines (PA1, OVCA420, OVCAR3, SKOV3, OVCA433). Kind of data set: Live/Dead analysis under anchorage independence (anoikis), panel of OC cell lines. The format is cell-based, human. The note with it: 10 nM for 24 hours after 48 hours anchorage independence.
The subject of data set [2] is PA1-luc-GFP cells. The data set is described as follows: PA1-luc-GFP intraperitoneal xenograft. The data set is classed as in vivo, NOD-SCID mice. The protocol:
(§1) All animal studies were performed in accordance with the Institutional Animal Care and Use Committee at the University of Alabama Birmingham. Female SCID mice (Key resources table) at 5-7 weeks of age were housed under pathogen-free conditions at the Animal Research Facility at UAB. 1.5×10^6 GFP-luciferase SK-OV3 cells or 3×10^6 GFP-luciferase expressing PA1 cells were intraperitoneally injected. Mice were monitored daily, with girth and weight measurement taken twice a week. Tumor progression was tracked weekly using the IVIS Lumina III In vivo Imaging System (Caliper Life Sciences, MA) at UAB's Small Animal Imaging Facility. rhBMP9 was administered at the time of tumor cell injection followed by daily intraperitoneal (i.p.) injections of 1 mg/mL in 4 mM HCl+PBS+DI water (Vehicle), to achieve a final 5 mg/kg dose. For metastasis and tumor growth analysis, mice were euthanized between 21-50 days depending on the cell line. At necropsy, ascites, if present, were collected and volumes measured when possible, tumor weights in the omentum and other organs were recorded and collected when possible. For survival studies, mice that reached end-point criteria, including continued weight loss, respiratory trouble and permanent recumbency were euthanized. For microscopic analysis of tissues, formalin-fixed tissues were processed, paraffin-embedded, and sectioned at 5 μm thickness and H&E stained at UAB's histology core.
(§2) IHC was performed using the BioCare Mach4 Universal Detection Kit. Specifically, anti-SOX2 was diluted in Da Vinci Green Diluent and incubated overnight at 4° C. in a humidified chamber. HRP was detected with 3,30-diaminobenzidine (DAB) substrate for 4 minutes. TUNEL staining was performed according to the manufacturer's instruction. Slides were examined and images captured with EVOS M7000 microscope. Cell profiler (Stirling et al., 2021) and Image J Fiji software were used for image quantification.

Data set [3] deals with SKOV3-luc-GFP cells. The data set is described as follows: SKOV3-luc-GFP intraperitoneal xenograft. The data set is classed as in vivo, NOD-SCID mice. On the procedure: as §1, §2
Data set [4] in a line: ELISA of BMP9 in plasma from mice. The format is in vivo. The note with it: PA1-luc-GFP mice, daily i.p. administration. On the technique in general: In an ELISA, binding on a coated surface is turned into a signal by an enzyme label.
For data set [5], the system named is PA1 cells. The data set is described as follows: Microarray transcription profile under anchorage independence. The note with it: 24 h, 2-fold change criterion. The format is cell-based, human. The protocol:
Lysate and RNA preparation: 100,000-300,000 cells were seeded in a poly-HEMA coated 6-well plate for indicated times in full serum unless indicated otherwise. Cells were collected by centrifugation and lysed with trizol for RNA extraction or direct 2× lysis buffer for protein lysates.
Total cellular RNA was extracted using Trizol reagent according to the manufacturer's protocol. RNA quality was determined using an Agilent 2100 Bioanalyzer and an RNA 6000 Nano kit (Agilent, Cat. No. 5067-1511) with RNA integrity numbers (RIN) ranging from 9.8 to 10. Microarray analyses were performed on the GeneChip™ Human Gene 2.0 ST ArrayS (Thermo Fisher Scientific, Cat. No. 902112) by the functional genomic core at University of South Carolina. Data were imported into the Affymetrix GeneChip Expression Console 1.4.1.46 and processed at the gene-level using the Robust Multichip Analysis (RMA) algorithm to generate CHP files. Experimental-group specific transcriptional responses were determined using unpaired one-way between-subject analysis of variance (ANOVA). Differentially expressed genes with p-values smaller than 0.05 and fold change higher than 2.0 and lower than −2.0 were used for further bioinformatics analysis.

The test system of data set [6] is 1-kb SOX2 promoter reporter. Kind of data set: pGL3-SOX2 promoter-reporter luciferase assay in HEK293 cells. The data set is classed as cell-based, human. The note with it: 10 nM, 24 hours, serum-free. On the procedure:
HEK293 cells were transfected with the pGL3-SOX2 promoter-luciferase reporter plasmid construct and SV40-renilla for 24h. […] According to the manufacturer's instruction, cells were collected and lysed in […] passive lysis buffer. To measure luciferase activity, […] of lysate was added to […] of dual Luciferase Assay Reagent, and luminescence was quantitated using a luminometer (Biotek).

Data set [7] relates to SOX2 promoter methylation. Kind of data set: Methylation-specific qPCR of SOX2 promoter. The note with it: PA1, rhBMP9 24 h. The format is cell-based, human. On the procedure: Genomic DNA was extracted, and bisulfite conversion was performed on 500 ng of gDNA using the MethylAmp DNA modification kit according to manufacturer's instructions. Relative quantitative RT-PCR (qPCR) was performed with methylation-specific and unmethylation-specific primers (see Table 3).
On the technique in general: In qPCR the cycle at which signal appears reflects the starting amount.

Data set [8] has as its system HEY parental cells. Kind of data set: Cell survival under anchorage independence, HEY parental. The data set is classed as cell-based, human. Particulars: 1, 5, 10 nM for 24, 48, and 72 hours. On the procedure:
(§3) For Live/Dead analysis under anchorage independence, 1,000 cells were seeded in 96-well hydrogel-coated ultra-low attachment (ULA) plates (Corning #4515) for times indicated. Growth factor treatment was done under low serum 2.5% FBS condition (Cells were plated in 10% FBS to allow spheroid formation before beginning treatment). Cells were then stained with 2 μM Calcein-AM and 4 μM Ethidium-homodimer for 30 min before imaging. z-stacked images were obtained using the Zeiss LSM700 Confocal microscope (Microscopy and Flow Cytometry Core, University of South Carolina) and NIKON A1 Confocal microscope (UAB High Resolution Imaging Facility). Fluorescent quantification was performed using ImageJ Fiji software to calculate the Corrected Total Cell Fluorescent (CTCF)=Integrated Density−(Area of selected cell×Mean fluorescence of background readings) per spheroid.

Data set [9] relates to A2780CP cells. Kind of data set: Cell survival under anchorage independence, A2780CP. The data set is classed as cell-based, human. The note with it: dose and time course. On the procedure:
as §3

With “BMP9: recombinant human bone morphogenetic protein 9 (BMP9/GDF2), TGF-β family ligand”, the “percentage of dead cells” value in data set [1] is “increase”. Further, the omental tumor burden entry in [2] (5 mg/kg i.p. daily, 7-week study, vs vehicle) was “significantly lower”. The “overall i.p. tumor burden over time by bioluminescence imaging” value in data set [2] (5 mg/kg i.p. daily, vs vehicle) is “significant reduction”. Besides, the “infiltrated tumor cells in omental tumors (histology)” value in data set [2] (vs vehicle) and in [3] (vs vehicle) was “significantly fewer” in each case. The “increase in TUNEL-positive cells in tumors” value in data set [2] (vs vehicle-treated mice) is “a factor of two increase”; in data set [3] (vs vehicle-treated mice), 143. Besides, the “mice with detectable ascites” value in data set [3] (5 mg/kg i.p. daily) is “none”. In addition, in data set [3] (5 mg/kg i.p. daily, day 16, vs vehicle), the “intraperitoneal tumor growth by BLI in the abdomen” value is listed as “significantly lower”. Moreover, in data set [4], the “BMP9 in plasma (ELISA)” value is reported as “elevated”. Also, in data set [5], the downregulated genes is recorded as 210. In data set [5], this substance came in with an upregulated genes of 333. The same substance returned a differentially expressed genes in data set [5] (p<0.05) of 543. The “luciferase activity of SOX2 promoter reporter” value in [6] was “significantly reduce”. Further, in [7], the “increase in SOX2 promoter methylation compared with control cells” value was found to be 2.53. Moreover, the “decrease in percentage live cells” value in data set [8] was 50-65%; in data set [9], 25-55%.

The values above are taken from patent US20240408175A1, “BMP9 OR AN AGONIST THEREOF AND ITS USES RELATED TO REDUCING METASTASIS OF CANCER” (THE UAB RESEARCH FOUNDATION, priority 2021, published 2024).
